From US20210395210A1, “INHIBITION OF BACTERIAL CHAPERONIN SYSTEMS” (THE TRUSTEES OF INDIANA UNIVERSITY, priority 2018, published 2021)
Where two headings read alike, the source gives them in different places.

What was measured:
[1] = molecular target: T1, E. coli GroEL/ES (Escherichia coli, UniProt P0A6F5); experiment: GroEL/ES-mediated dRho refolding assay; format: biochemical
T1 construct: made in house; host or cells: GroEL in E. coli DH5α; GroES in E. coli BL21 (DE3)
Protocol: Reagent preparation: For this assay, five primary reagent stocks were prepared: 1) GroEUES-dRho binary complex stock; 2) ATP initiation stock; 3) thiocyanate enzymatic assay stock; 4) formaldehyde quench stock; 5) ferric nitrate reporter stock. Denatured rhodanese (dRho) was prepared by 3-fold dilution of rhodanese (Roche product #R1756, diluted to 10 mg/mL with H2O) with denaturant buffer (12 M Urea, 50 mM Tris-HCl, pH 7.4, and 10 mM DTT). Rhodanese was completely denatured by incubating at room temperature for 45 min. The binary complex solution was prepared by slowly adding the dRho stock to a stirring stock of concentrated GroEL in modified folding buffer (50 mM Tris-HCl, pH 7.4, 50 mM KCl, 10 mM MgCl2, 5 mM Na2S2O3, and 1 mM DTT). The solution was centrifuged at 16,000×g for 5 minutes, and the supernatant was collected and added to a solution of GroES in modified folding buffer to give final protein concentrations of 100 nM GroEL, 120 nM GroES, and 80 nM dRho. The binary complex stock was prepared immediately prior to use. For the ATP initiation stock, ATP solid was diluted into modified folding buffer to a final concentration of 2.0 mM. The thiocyanate enzymatic assay stock was prepared to contain 70 mM KH2PO4, 80 mM KCN, and 80 mM Na2S2O3 in water. The formaldehyde quench solution contained 30% formaldehyde in water. The ferric nitrate reporter stock contained 8.5% w/v Fe(NO3)3 and 11.3% v/v HNO3 in water.
Assay Protocol: First, 10 μL aliquots of the GroEL/ES-dRho complex stock were dispensed into clear, 384-well polystyrene plates. […] The chaperonin-mediated refolding cycle was initiated by addition of 10 μL of ATP stock (reagent concentrations during refolding cycle: 50 nM GroEL, 60 nM GroES, 40 nM dRho, 1 mM ATP, and compounds of 250 μM to 114 nM, 3-fold dilution series). After incubating for 45 minutes at 37° C. for the refolding cycle, 30 μL of the thiocyanate enzymatic assay stock was added and incubated for 60 min at R.T. for the refolded rhodenase enzymatic reporter reaction. The reporter reaction was quenched by adding 10 μL of the formaldehyde quench stock, and then 40 μL of the ferric nitrate reporter stock was added to quantify the amount of thiocyanate produced during the enzymatic reporter reaction, which is proportional to the amount of dRho refolded by GroEL/ES. After incubating at R.T. for 15 min, the absorbance by Fe(SCN)3 was measured at 460 nm using a Molecular Devices SpectraMax Plus384 microplate reader. A second set of baseline control plates were prepared analogously, but without GroEL/ES-dRho protein binary solution, to correct for possible interference from compound absorbance or turbidity. […] Results presented represent the averages of IC50 values obtained from at least quadriplicate (duplicate of duplicate) replicates.
After generating the compound library, we next employed a series of well-established biochemical assays to evaluate compound inhibitory effects against the GroEUES chaperonin system (See FIG. 6 and FIG. 7). We used E. coli GroEUES as the surrogate chaperonin system for refolding of the reporter enzymes malate dehydrogenase (MDH) and rhodanese (Rho). Briefly, binary complexes are formed between GroEL and denatured MDH or Rho, which are then refolded to their native states upon addition of ATP and the GroES co-chaperonin. Enzymatic activities of refolded native MDH or Rho act as coupled reporters of GroEUES refolding functions since in the presence of chaperonin inhibitors, no functional reporter enzymes are generated.

[2] = tested on: S. aureus Rosenbach (ATCC 25923) biofilm formation; experiment: S. aureus biofilm prevention assay (crystal violet); format: cell-based; details: Staphylococcus aureus, read-out: S. aureus Proliferation & Biofilm Assay EC50 Preventing Biofilm Formation
Protocol: The biofilm prevention assay was carried out with S. aureus Rosenbach (ATCC 25923) using a quantitative crystal violet-based adherence assay on 96-well plates. S. aureus (ATCC 25923) bacteria were streaked onto a Tryptic Soy Broth (TSB) agar plate and grown overnight at 37° C. A fresh aliquot of TSB media was inoculated with a single bacterial colony and the cultures were grown overnight at 37° C. with shaking (250 rpm). The overnight culture was then sub-cultured (1:5 dilution) into a fresh aliquot of TSB media supplemented to a final concentration of 0.5% glucose and grown at 37° C. for 1 h with shaking, then diluted into fresh TSB media supplemented with 0.5% glucose to achieve a final OD600 reading of 0.01. Aliquots of the diluted culture (100 μL) were dispensed to 96 well polystyrene plates along with addition of 1 μL test compounds in DMSO. The inhibitor concentration range during the assay was 100 μM to 46 nM (3-fold dilution series). A second set of baseline control plates were prepared analogously, but without any bacteria added, to correct for possible compound absorbance and/or precipitation. Plates were sealed with “Breathe Easy” oxygen permeable membranes (Diversified Biotech) and left to incubate at 37° C. without shaking (stagnant assay) until the biofilm was formed. After 24 h, the planktonic cultures were removed and the plates were washed gently 2-3 times with 200 μl of water. Next, the plates were air dried and the adherent biofilms were stained with 150 μL of crystal violet solution (2.3% crystal violet in 20% Ethanol, Sigma Aldrich #HT90132) for 15 minutes at R.T. The unbound crystal violet stain was removed, then plates were gently washed again with running water and air dried for 10 min. Quantitative assessment of biofilm formation was obtained by adding 100 μL of developer solution (4:1:5 mixture of MeOH:AcOH:H2O) per well. Well absorbance was then read at 595 nm using a Molecular Devices SpectraMax Plus384 microplate reader. […] Results presented represent the averages of EC50 values obtained from at least triplicate experiments.
Establishing biofilms is another effective mechanism by which S. aureus can evade the effects of many current antibiotics, including vancomycin. […] Briefly, test compounds (1, 2, 5, 8, 11, and vancomycin) were incubated with S. aureus bacteria in media supplemented with 0.5% glucose (to support biofilm formation) for 24 h at 37° C. After 24 h, the supernatant was removed, the wells were gently washed, and the biofilm that had formed on the well surfaces were stained with crystal-violet and quantified by UV-Vis spectroscopy.

[3] = log of IC50 (μM scale), with standard deviation
[4] = read-out: Biochemical Assay IC50 GroEL/ES-dRho Refolding
[5] = log of IC50 (μM scale), with standard deviation, read-out: log(IC50) GroEL/ES-dRho Refolding (converted)

T1 sequence (P0A6F5 2-548): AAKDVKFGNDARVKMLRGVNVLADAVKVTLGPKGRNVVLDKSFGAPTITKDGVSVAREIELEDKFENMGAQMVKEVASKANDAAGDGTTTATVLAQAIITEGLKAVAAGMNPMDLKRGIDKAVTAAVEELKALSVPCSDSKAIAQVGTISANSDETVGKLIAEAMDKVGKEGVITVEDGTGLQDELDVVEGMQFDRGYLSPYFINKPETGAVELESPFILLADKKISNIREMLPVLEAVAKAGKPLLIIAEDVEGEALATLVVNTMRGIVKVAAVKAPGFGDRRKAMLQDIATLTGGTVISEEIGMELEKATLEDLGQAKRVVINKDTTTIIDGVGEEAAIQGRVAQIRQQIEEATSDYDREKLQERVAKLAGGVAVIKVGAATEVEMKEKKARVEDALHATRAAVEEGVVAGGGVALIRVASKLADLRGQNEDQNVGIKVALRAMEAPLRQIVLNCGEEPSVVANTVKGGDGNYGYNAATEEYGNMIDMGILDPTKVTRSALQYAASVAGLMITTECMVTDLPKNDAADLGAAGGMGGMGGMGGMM

SMILES | IC50 [1] [µM] | log(IC50) GroEL/ES-dRho Refolding [1, 3] | EC50 ([2]; ATCC25923, 24 h) [nM] | IC50 [1, 4] [µM] | IC50 [1, 5] [µM] | EC50 ([2]; ATCC25923, 24 h, media with 0.5% glucose, crystal violet A595) [nM]
O=C(Nc1cccc(Cl)c1)c1cc(Br)ccc1O [Compound 11, 5-Bromo-N-(3-chlorophenyl)-2-hydroxybenzamide] | > 100 | >2 | 440 |  |  | 
CN[C@H](CC(C)C)C(=O)N[C@H]1C(=O)N[C@@H](CC(N)=O)C(=O)N[C@H]2C(=O)N[C@H]3C(=O)N[C@H](C(=O)N[C@H](C(=O)O)c4cc(O)cc(O)c4-c4cc3ccc4O)[C@H](O)c3ccc(c(Cl)c3)Oc3cc2cc(c3O[C@@H]2O[C@H](CO)[C@@H](O)[C@H](O)[C@H]2O[C@H]2C[C@](C)(N)[C@H](O)[C@H](C)O2)Oc2ccc(cc2Cl)[C@H]1O [Vancomycin, vancomycin, reference compound] | > 100 | >2 | 540 |  |  | 
O=C(Nc1ccc(Sc2nc3ccccc3s2)c(Cl)c1)c1cccc(Br)c1O [Compound 2, N-(4-(Benzo[d]thiazol-2-ylthio)-3-chlorophenyl)-3-bromo-2-hydroxybenzamide] |  | 0.58 ± 0.15 | 1000 | 3.8 |  | 
O=C(Nc1ccc(Sc2nc3ccccc3s2)cc1)c1cc(Br)cc(Br)c1O [Compound 5, N-(4-(Benzo[d]thiazol-2-ylthio)phenyl)-3,5-dibromo-2-hydroxybenzamide] |  |  | 540 | 1.3 | 1.32 | 
O=C(Nc1ccc(Sc2nc3ccccc3s2)c(Cl)c1)c1cc(Br)cc(Br)c1O [Compound 1, N-(4-(Benzo[d]thiazol-2-ylthio)-3-chlorophenyl)-3,5-dibromo-2-hydroxybenzamide] |  |  | 720 | 1.5 | 1.55 | 
O=C(Nc1ccc(Sc2nc3ccccc3s2)cc1)c1ccccc1O [Compound 8, N-(4-(Benzo[d]thiazol-2-ylthio)phenyl)-2-hydroxybenzamide] |  | 1.94 ± 0.23 |  | 87 |  | 910
COc1c(Br)cccc1C(=O)Nc1ccc(Sc2nc3ccccc3s2)c(Cl)c1 [Compound 30, N-(4-(Benzo[d]thiazol-2-ylthio)-3-chlorophenyl)-3-bromo-2-methoxybenzamide] | > 100 |  |  |  |  | 
COc1ccc(Br)cc1C(=O)Nc1ccccc1 [Compound 43, 5-Bromo-2-methoxy-N-phenylbenzamide] | > 100 | >2 |  |  |  | 
